Data on seven molecules can be found in patent US10550117B2, “2-azabicyclo[3.1.0]hexan-3-one derivatives and methods of use” (Genentech, Inc., priority 2016, dated 2020).

Data set [1] addresses nuclear factor-kappa B (NF-kB)-inducing kinase (NIK) (Homo sapiens (Human), UniProt Q99558). The experiment in a line: NIK enzyme inhibition assay (Transcreener ADP fluorescence polarization). The data set is classed as biochemical. The note with it: for Ki: purified NIK 0.5 nM, 10 μM ATP, Morrison equation, read-out: NIK ADP-FP Ki; for NIK enzyme inhibition, potency in words relative to the other stereoisomers: stereoisomers separated by chiral SFC, qualitative. The method, then:
The ability of the nuclear factor-kappa B (NF-kB)-inducing kinase (NIK) to catalyze the hydrolysis of adenosine-5′-triphosphate (ATP) was monitored using the Transcreener ADP (adenosine-5′-diphosphate) assay (BellBrook Labs). […] Reactions were quenched by the addition of 20 mM 2,2′,2″,2′″-(ethane-1,2-diyldinitrilo)tetraacetic acid and 0.01% Brij 35. The tracer bound to the antibody was displaced by the ADP generated during the NIK reaction, which causes a decrease in fluorescence polarization that was measured by laser excitation at 633 nm with a Fluorescence Correlation Spectroscopy Plus reader (Evotec AG). Equilibrium dissociation constant (Ki) values for NIK inhibitors are calculated from plots of activity vs. inhibitor concentration using Morrison's quadratic equation that accounts for the potential of tight binding, and by also applying the conversion factor that accounted for competitive inhibition and the concentration of substrate used in the assay relative to its Michaelis constant (Km).
Background: In fluorescence polarisation assays a small probe gives low polarisation when free and higher when bound to something large.

In data set [2] the test system is REL-A (p65) nuclear translocation in HUVEC. The experiment in a line: REL-A HUVEC nuclear translocation assay (TNF-α stimulated, high content imaging). The data set is classed as cell-based. The note with it: Homo sapiens, 2 ng/mL TNF-α. The method, then: (§1) (2) A second set of cell assays used primary human umbilical vein cells (HUVEC) sourced from Lonza to define the selectivity of NIK inhibitors toward inhibition of classical vs. non-classical NF-kB signaling using high content cellular imaging. For the p52 (non-classical NF-kB signaling) nuclear translocation assay, HUVEC were treated with different concentrations of compounds (0.2% DMSO final) in EBM-2 medium (LONZA) containing 2% fetal bovine serum and then stimulated with 300 ng/mL of an anti-lymphotoxin beta receptor antibody (R&D Systems) for 4.5 hours. In the REL-A nuclear translocation assay, HUVEC were incubated with compounds (0.2% DMSO final) for 4 hours 50 minutes in EBM-2 medium containing 2% fetal bovine serum before stimulating them with 2 ng/mL tumor necrosis factor (TNF)-α (R&D Systems) for 10 minutes. Cells were fixed with 4% paraformaldehyde, permeabilized by adding 0.1% Triton X-100 in phosphate buffered saline, and then were incubated with either 2 μg/mL anti-p52 antibody (Millipore) or 400 ng/mL anti-REL-A (p65) antibody (Santa Cruz Biotechnology). Finally, the cells were incubated with an Alexa488-labeled secondary antibody (Invitrogen) and DRAQ5 DNA stain (Biostatus). Imaging was carried out using an Opera reader (Perkin Elmer) and data were analyzed with the aid of Acapella software (Perkin Elmer). The p52 or REL-A translocation into the nucleus was quantified by the ratio of the nuclear to cytoplasmic signal intensity.

The test system of data set [3] is p52 (non-classical NF-kB signaling) nuclear translocation in HUVEC. The experiment in a line: p52 HUVEC nuclear translocation assay (anti-lymphotoxin beta receptor antibody stimulated). The data set is classed as cell-based. The note with it: Homo sapiens, 300 ng/mL anti-lymphotoxin beta receptor antibody. The method, then:
as §1

A short description of the next data set: Hepatocyte stability. Type of data set: in vitro ADME. The note with it: human hepatocytes; for stability in the human hepatocyte assay versus the corresponding pyrrolidinone comparator compound: qualitative comparison. The method, then: General. Metabolic stability assays in hepatocytes are conducted using cryopreserved pooled female CD-1 mouse, male Sprague-Dawley rat, male beagle dog, male cynomolgus monkey, and mixed male and female human hepatocytes (CellzDirect). Vials of hepatocytes are thawed rapidly in a water bath set at 37° C. and then are diluted with Dulbecco's modified Eagle's medium (DMEM), pH 7.4. Cells are isolated by centrifugation, pooled, and resuspended in DMEM at 1.0 million viable cells/ml. Membrane integrity of the cells is assessed by trypan blue exclusion. The test compound is dissolved in dimethyl sulfoxide at a final concentration of 10 mM. This test compound stock is diluted further to 2 μM in DMEM (125 μl) before the addition of an equal volume of the 10^6 cells/ml cell suspension. The test compound (final incubation concentration of 1.0 μM with 0.1% dimethyl sulfoxide) and cells (final concentration of 0.5×10^6 cells/ml) are incubated at 37° C. in a 95% air/5% CO2 atmosphere for 3 h. Aliquots (50 μl) are removed at 0, 1, 2, and 3 hours and added to termination mixtures (100 μl) containing acetonitrile and an internal standard. The samples are then centrifuged for 10 min at 2000 g. The supernatant (90 μl) is removed, combined with 180 μl of water, and analyzed by LC-MS/MS.
Metabolic stability of the test compounds were evaluated also in human hepatocytes, following protocols described in Hallifax, et al. Drug Metabol. Disposition, 2005, 33:1852-1858.

Data set [4] is described as follows: Liver microsome stability. The data set is classed as in vitro ADME. The note with it: for HLM CL (human liver microsome clearance): human liver microsomes; for stability in human liver microsomes versus the corresponding pyrrolidinone comparator compound: qualitative comparison. The method, then:
Metabolic stability assays in liver microsomes are conducted with pooled female CD-1 mouse, male Sprague-Dawley rat, male beagle dog, male cynomolgus monkey, and mixed male and female human liver microsomal incubations. The general assay conditions are as follows. Incubation mixtures consisted of liver microsomes (0.5 mg of microsomal protein/ml) and the test compound (1.0 μM) with or without NADPH (1.0 mM) in the potassium phosphate buffer (100 mM; pH 7.4) with a final incubation volume of 0.25 ml. Reactions are initiated by the addition of NADPH or buffer and shaken in a water bath open to the air at 37° C. At times 0, 20, 40, and 60 min, aliquots (50 μl) are removed and added to termination mixtures (100 μl) containing acetonitrile and an internal standard. The samples are then centrifuged for 10 min at 2000 g. The supernatant (90 μl) is removed, combined with 180 μl of water, and analyzed by LC-MS/MS.
Metabolic stability of the test compounds were evaluated in human liver microsomes following known protocols described in Halladay, et al. Drug Metabol. Lett. 2007, 1:67-72.
(Liver microsomes are vesicles of endoplasmic reticulum, rich in cytochrome P450 enzymes.)

Data set [5] has as its system REL-A (p65) nuclear translocation in HeLa cells. The experiment in a line: REL-A HeLa nuclear translocation assay (TNF-α stimulated, high content imaging). Type of data set: cell-based. The note with it: Homo sapiens, 10 ng/mL TNF-α. The method, then:
(§2) (3) A third set of cell assays are used to define the selectivity of NIK inhibitors toward inhibition of classical vs. non-classical NF-kB signaling and rely on quantification of the nuclear translocation of p52 (NF-kB2) and REL-A (p65) using high content cellular imaging. For the p52 (non-classical NF-kB signaling) nuclear translocation assay, HeLa cells are treated with different concentrations of compounds (0.2% DMSO final) in medium containing 10% fetal bovine serum and then stimulated with 100 ng/mL of an anti-lymphotoxin beta receptor antibody (R&D Systems) for 5 hours. In the REL-A nuclear translocation assay, HeLa cells are incubated with compounds (0.2% DMSO final) for 4.5 hours in medium containing 10% fetal bovine serum before stimulating them with 10 ng/mL tumor necrosis factor (TNF)-α (R&D Systems) for 30 minutes. Cells are fixed with 4% paraformaldehyde, permeabilized by adding 0.1% Triton X-100 in phosphate buffered saline, and then are incubated with either 2 μg/mL anti-p52 antibody (Millipore) or 400 ng/mL anti-REL-A (p65) antibody (Santa Cruz Biotechnology). Finally, the cells are incubated with an Alexa488-labeled secondary antibody (Invitrogen) and DRAQ5 DNA stain (Biostatus). Imaging is carried out using an Opera reader (Perkin Elmer) and data are analyzed with the aid of Acapella software (Perkin Elmer). The p52 or REL-A translocation into the nucleus is quantified by the ratio of the nuclear to cytoplasmic signal intensity. […] The test compounds have the corresponding inhibitory values (IC50) for NIK REL-A (p65) and p52 Translocation Assays as set forth in Table B2.

In data set [6] the test system is p52 (NF-kB2) nuclear translocation in HeLa cells. The experiment in a line: p52 HeLa nuclear translocation assay (anti-lymphotoxin beta receptor antibody stimulated). The data set is classed as cell-based. The note with it: Homo sapiens, 100 ng/mL anti-lymphotoxin beta receptor antibody. The method, then:
as §2

Chain of nuclear factor-kappa B (NF-kB)-inducing kinase (NIK) (Q99558 whole entry): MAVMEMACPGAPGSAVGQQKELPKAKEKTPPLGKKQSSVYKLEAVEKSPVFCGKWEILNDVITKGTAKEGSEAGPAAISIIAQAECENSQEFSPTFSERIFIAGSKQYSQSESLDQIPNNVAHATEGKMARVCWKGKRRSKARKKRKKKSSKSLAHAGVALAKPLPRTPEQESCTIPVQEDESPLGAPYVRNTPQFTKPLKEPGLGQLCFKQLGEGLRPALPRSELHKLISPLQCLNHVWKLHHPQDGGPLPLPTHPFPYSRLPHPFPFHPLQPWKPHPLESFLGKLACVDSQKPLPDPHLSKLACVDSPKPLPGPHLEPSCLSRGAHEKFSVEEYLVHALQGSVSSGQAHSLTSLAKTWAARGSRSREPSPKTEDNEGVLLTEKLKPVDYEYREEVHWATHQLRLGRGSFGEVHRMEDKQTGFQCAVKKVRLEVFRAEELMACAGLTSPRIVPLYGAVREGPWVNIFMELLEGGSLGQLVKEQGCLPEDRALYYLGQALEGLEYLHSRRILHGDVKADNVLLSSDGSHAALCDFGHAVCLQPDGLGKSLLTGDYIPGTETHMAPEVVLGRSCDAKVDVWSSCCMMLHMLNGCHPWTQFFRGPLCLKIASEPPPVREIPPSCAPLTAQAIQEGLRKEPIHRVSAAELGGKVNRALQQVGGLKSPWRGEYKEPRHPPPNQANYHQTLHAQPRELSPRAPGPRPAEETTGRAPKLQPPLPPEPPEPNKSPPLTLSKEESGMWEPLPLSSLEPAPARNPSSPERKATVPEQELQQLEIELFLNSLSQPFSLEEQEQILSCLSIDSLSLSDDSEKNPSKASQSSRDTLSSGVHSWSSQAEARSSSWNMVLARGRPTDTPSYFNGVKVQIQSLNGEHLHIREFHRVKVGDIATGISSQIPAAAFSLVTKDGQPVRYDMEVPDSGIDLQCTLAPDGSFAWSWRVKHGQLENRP

A word on the Ki: it is a measure of affinity in units of concentration, obtained from inhibition or displacement. By IC50 is commonly meant the midpoint of a concentration-inhibition curve. A high value points to weaker potency in that assay. `CN1C(=O)[C@](O)(C#Cc2cccc(-n3nc(C(N)=O)c4cccnc43)c2)[C@H]2C[C@H]21` [Compound 1, 1-(3-(((1R,4R,5S)-4-hydroxy-2-methyl-3-oxo-2-azabicyclo[3.1.0]hexan-4-yl)ethynyl)phenyl)-1H-pyrazolo[3,4-b]pyridine-3-carboxamide]: in data set [1], the inhibition constant (Ki) was 0.88 nM and the “NIK enzyme inhibition, potency in words relative to the other stereoisomers” value was “most potent NIK enzyme inhibitor among the 4 stereoisomers”. In addition, in data set [2], the 50% inhibitory concentration (IC50) is over 5000 nM. The same molecule displayed an IC50 in data set [3] of 55 nM. Moreover, in “Hepatocyte stability”, the “Hep CL (human hepatocyte clearance)” value is given as 0.8 mL/min/kg and the “stability in the human hepatocyte assay versus the corresponding pyrrolidinone comparator compound” value is given as “better stability”. In data set [4], the “HLM CL (human liver microsome clearance)” value was determined as 5.8 mL/min/kg and the “stability in human liver microsomes versus the corresponding pyrrolidinone comparator compound” value is given as “better stability”.

Take `CN1C(=O)[C@](O)(C#Cc2cccc(-n3nc(C(N)=O)c4cccnc43)c2)[C@@H]2C[C@@H]21` [Compound 2, 1-(3-(((1S,4R,5R)-4-hydroxy-2-methyl-3-oxo-2-azabicyclo[3.1.0]hexan-4-yl)ethynyl)phenyl)-1H-pyrazolo[3,4-b]pyridine-3-carboxamide]: in data set [1], the Ki was determined as 4.3 nM and the “NIK enzyme inhibition, potency in words relative to the other stereoisomers” value was “second most potent NIK enzyme inhibitor among the 4 stereoisomers”. Moreover, the IC50 in data set [2] was over 5000 nM. For the same molecule, half-maximal inhibition in data set [3] (IC50) required 280 nM. The “Hep CL (human hepatocyte clearance)” value in the data set “Hepatocyte stability” was 13 mL/min/kg. In data set [4], the “HLM CL (human liver microsome clearance)” value is 7.7 mL/min/kg.

In data set [2], `CN1C(=O)[C@](O)(C#Cc2cccc(-c3nc(C(N)=O)n4ccccc34)c2)[C@H]2C[C@H]21` [Compound 3] displayed an IC50 of over 5000 nM. In data set [3], this molecule had an IC50 of 25 nM. Further, in the data set “Hepatocyte stability”, the “Hep CL (human hepatocyte clearance)” value is reported as 9.0 mL/min/kg and the “stability in the human hepatocyte assay versus the corresponding pyrrolidinone comparator compound” value is “better stability”. In addition, in data set [4], the “HLM CL (human liver microsome clearance)” value is 11 mL/min/kg and the “stability in human liver microsomes versus the corresponding pyrrolidinone comparator compound” value is “better stability”.

Consider `CN1C(=O)[C@](O)(C#Cc2cccc(-c3nc(C(N)=O)c4ccccn34)c2)[C@H]2C[C@H]21` [Compound 5, 3-(3-(((1R,4R,5S)-4-hydroxy-2-methyl-3-oxo-2-azabicyclo[3.1.0]hexan-4-yl)ethynyl)phenyl)imidazo[1,5-a]pyridine-1-carboxamide], for which, in data set [1], the inhibition constant Ki was determined as 4.7 nM and the “NIK enzyme inhibition, potency in words relative to the other stereoisomers” value is “most potent NIK enzyme inhibitor among the 4 stereoisomers”. Moreover, in data set [2], the half-inhibitory concentration (IC50) is over 5000 nM. In data set [3], the half-inhibitory concentration (IC50) amounted to 3000 nM. Further, in “Hepatocyte stability”, the “Hep CL (human hepatocyte clearance)” value came to 1.6 mL/min/kg and the “stability in the human hepatocyte assay versus the corresponding pyrrolidinone comparator compound” value is “better stability”. In data set [4], the “HLM CL (human liver microsome clearance)” value is 3.5 mL/min/kg and the “stability in human liver microsomes versus the corresponding pyrrolidinone comparator compound” value is on record as “better stability”.

For `CN1CC[C@@](O)(C#Cc2cccc(-c3nc(C(N)=O)n4ccccc34)c2)C1=O` [Compound C-3], the results for the IC50 in data set [2], in data set [5] and in data set [6] were over 5000 nM, over 20000 nM and 29.8 nM, respectively.

Turning to `COc1ccn2c(C(N)=O)nc(-c3cccc(C#C[C@]4(O)CCN(C)C4=O)c3)c2c1` [Compound C-4, reference compound], the figures for the IC50 in data set [2], in data set [5] and in data set [6] were over 5000 nM, over 1000 nM and 6.6 nM, respectively. Moreover, in “Hepatocyte stability”, the “Hep CL (human hepatocyte clearance)” value stood at 9.9 mL/min/kg. Besides, in data set [4], the “HLM CL (human liver microsome clearance)” value came to 15 mL/min/kg.

Consider `CN1CC[C@@](O)(C#Cc2cccc(-c3nc(C(N)=O)c(N)s3)c2)C1=O` [Compound C-6, reference compound], for which the inhibitory constant (Ki) in data set [1] turned out to be 0.13 nM. The concentration for half-maximal inhibition (IC50) in data set [5] is over 5000 nM; in data set [6], 79.1 nM. In the data set “Hepatocyte stability”, the “Hep CL (human hepatocyte clearance)” value is recorded as 1.1 mL/min/kg. In data set [4], the “HLM CL (human liver microsome clearance)” value turned out to be 5.1 mL/min/kg.
